Source: US20180186742A1, “PICOLINAMIDES AS FUNGICIDES” (Dow AgroSciences LLC, priority 2017, published 2018)
Like-named read-outs stand apart in the source and are kept apart here.

Key:
Type in all cases: in vivo
Zymoseptoria tritici = test: Leaf blotch of wheat (SEPTTR), disease control on wheat seedlings; conditions: low volume application at 121.5 g/H
How it was run: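 Z. tritici spores were inoculated onto wheat seedlings (Yuma, first leaf emerged) either before or after treatment. Treatment was an automated spray to run-off of acetone/Triton X-100 water solutions, or a track spray of EC formulations with 0.1% Trycol 5941. Plants were held in dew chambers at 20 °C and then a greenhouse at 20 °C. First-leaf severity (0–100%) was converted to percent control against untreated plants.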

Alternaria solani = test: Tomato early blight (ALTESO), disease control on tomato plants; conditions: 1DP test at 100 ppm, read-out: ALTESO disease control rating
Protocol: Technical grades of materials were dissolved in acetone, which were then mixed with nine volumes of water containing 110 ppm Triton X-100. The fungicide solutions were applied onto wheat seedlings using an automated booth sprayer to run-off. All sprayed plants were allowed to air dry prior to further handling. All fungicides were evaluated using the aforementioned method for their activity vs. all target diseases, unless stated otherwise. Wheat leaf blotch and brown rust activity were also evaluated using track spray applications, in which case the fungicides were formulated as EC formulations, containing 0.1% Trycol 5941 in the spray solutions. Tomato plants (variety Outdoor Girl) were propagated in soil-less Metro mix, with each pot having one plant, and used when 12 to 14 days old. Test plants were inoculated with an aqueous spore suspension of Alternaria solani 24 hr after fungicide treatments. After inoculation the plants were kept in 100% relative humidity (one day in a dark dew chamber followed by two to three days in a lighted dew chamber at 20° C.) to permit spores to germinate and infect the leaf. The plants were then transferred to a growth room at 22° C. for disease to develop. Fungicide formulation, application and disease assessment on the sprayed leaves followed the procedures as described in the Example A.

[1] = system: Pseudoperonospora cubensis; test: Cucumber downy mildew (PSPECU), disease control on cucumber seedlings; conditions: 24 h, 1DP (1 Day Protectant) test at 100 ppm
Protocol: Technical grades of materials were dissolved in acetone, which were then mixed with nine volumes of water containing 110 ppm Triton X-100. The fungicide solutions were applied onto wheat seedlings using an automated booth sprayer to run-off. All sprayed plants were allowed to air dry prior to further handling. All fungicides were evaluated using the aforementioned method for their activity vs. all target diseases, unless stated otherwise. Wheat leaf blotch and brown rust activity were also evaluated using track spray applications, in which case the fungicides were formulated as EC formulations, containing 0.1% Trycol 5941 in the spray solutions. Cucumber seedlings (variety Bush Pickle) were grown in soil-less Metro mix, with one plant per pot, and used in the test when 12 to 14 days old. Plants were inoculated with a spore suspension 24 hr following fungicide treatments. Test plants were inoculated with an aqueous spore suspension of Pseudoperonospora cubensis 24 hr after fungicide treatments. After inoculation the plants were kept in a dew room at 22° C. with 100% relative humidity for 24 hr to permit spores to germinate and infect the leaf. The plants were then transferred to a greenhouse set at 20° C. until disease was fully expressed. Fungicide formulation, application and disease assessment on the sprayed leaves followed the procedures as described in the Example A.

Rhyncosporium secalis = test: Barley scald (RHYNSE), disease control on barley seedlings; conditions: Hordeum vulgare, 24 h, 1DP (1 Day Protectant) test at 100 ppm
Protocol: Technical grades of materials were dissolved in acetone, which were then mixed with nine volumes of water containing 110 ppm Triton X-100. The fungicide solutions were applied onto wheat seedlings using an automated booth sprayer to run-off. All sprayed plants were allowed to air dry prior to further handling. All fungicides were evaluated using the aforementioned method for their activity vs. all target diseases, unless stated otherwise. Wheat leaf blotch and brown rust activity were also evaluated using track spray applications, in which case the fungicides were formulated as EC formulations, containing 0.1% Trycol 5941 in the spray solutions. Barley seedlings (variety Harrington) were propagated in soil-less Metro mix, with each pot having 8 to 12 plants, and used in the test when first leaf was fully emerged. Test plants were inoculated by an aqueous spore suspension of Rhyncosporium secalis 24 hr after fungicide treatments. After inoculation the plants were kept in a dew room at 20° C. with 100% relative humidity for 48 hr. The plants were then transferred to a greenhouse set at 20° C. for disease to develop. Fungicide formulation, application and disease assessment on the sprayed leaves followed the procedures as described in the Example A.

[2] = 24 h, 1 Day Protectant, read-out: SEPTTR disease control, 1DP, LV activity
[3] = 72 h, 3 Day Curative, read-out: SEPTTR disease control, 3DC, LV activity
[4] = 24 h, 1 Day Protectant, wheat leaf blotch, read-out: SEPTTR 1DP disease control, LV activity
[5] = 72 h, 3 Day Curative, wheat leaf blotch, read-out: SEPTTR 3DC disease control, LV activity

SMILES	pest or weed control at 121.5 g/ha (Zymoseptoria tritici; [2])	pest or weed control at 121.5 g/ha (Zymoseptoria tritici; [3])	pest or weed control at 100 ppm (Alternaria solani)	pest or weed control at 100 ppm [1]	pest or weed control at 100 ppm (Rhyncosporium secalis)	pest or weed control at 121.5 g/ha (Zymoseptoria tritici; [4])	pest or weed control at 121.5 g/ha (Zymoseptoria tritici; [5])
COc1ccnc(C(=O)N[C@@H](C)C(=O)O[C@@H](C)[C@H](c2ccc(F)cc2C)C(C)C)c1OC(C)=O [Compound 186]	> 80%	> 80%	> 80%	< 80%	< 80%		
CCC(CC)[C@@H](c1ccc(F)cc1C)[C@H](C)OC(=O)[C@H](C)NC(=O)c1nccc(OC)c1OC(C)=O [Compound 187]	> 80%	> 80%	< 80%	< 0%	> 80%		
COc1ccnc(C(=O)N[C@@H](C)C(=O)O[C@@H](C)[C@H](c2ccc(F)cc2C)C(C)C)c1OC(=O)C(C)C [Compound 216]	> 80%	> 80%	< 80%	< 80%	< 80%		
COc1ccnc2c(=O)n([C@@H](C)C(=O)O[C@@H](C)[C@H](c3ccc(F)cc3C)C(C)C)c(=O)oc12 [Compound 217]	> 80%	> 80%	< 80%	< 0%	< 80%		
COc1cc[n+]([O-])c(C(=O)N[C@@H](C)C(=O)O[C@@H](C)[C@H](c2ccc(F)cc2C)C(C)C)c1O [Compound 218]	> 80%	< 80%	< 0%	< 0%	< 80%		
COc1ccnc(C(=S)N[C@@H](C)C(=O)O[C@@H](C)[C@H](c2ccc(F)cc2C)C(C)C)c1OC(C)=O [Compound 219]	< 80%	> 80%	< 80%	< 80%	< 80%		
COCCC(=O)Oc1c(OC)ccnc1C(=O)N[C@@H](C)C(=O)O[C@@H](C)[C@H](c1ccc(F)cc1C)C(C)C [Compound 220]	> 80%	> 80%	< 80%	< 0%	< 80%		
COc1ccnc(C(=O)N[C@@H](C)C(=O)O[C@@H](C)[C@H](c2ccc(F)cc2C)C(C)C)c1OC(=O)C1CCCC1 [Compound 354]	> 80%	> 80%	< 80%	> 80%	< 80%		
CCC(C)C(=O)Oc1c(OC)ccnc1C(=O)N[C@@H](C)C(=O)O[C@@H](C)[C@H](c1ccc(F)cc1C)C(C)C (stereo partly shown) [Compound 355]	> 80%	> 80%	> 80%	< 80%	< 80%		
COc1ccnc(C(=O)N[C@@H](C)C(=O)O[C@@H](C)[C@H](c2ccc(F)cc2C)C(C)C)c1OC(=O)CC(C)C [Compound 356]	> 80%	> 80%	> 80%	< 80%	< 80%		
CCC(=O)Oc1c(OC)ccnc1C(=O)N[C@@H](C)C(=O)O[C@@H](C)[C@H](c1ccc(F)cc1C)C(C)C [Compound 357]	> 80%	> 80%	< 80%	< 80%	< 80%		
COc1ccnc(C(=O)N[C@@H](C)C(=O)O[C@@H](C)[C@H](c2cccc(F)c2C)C(C)C)c1OC(C)=O [Compound 359]	< 80%	> 80%	< 80%	< 80%	> 80%		
COc1ccnc(C(=O)N[C@@H](C)C(=O)O[C@@H](C)[C@H](c2cccc(C)c2C)C(C)C)c1OC(C)=O [Compound 363]	< 80%	< 80%	< 0%	< 0%	< 80%		
COc1ccnc(C(=O)N[C@@H](C)C(=O)O[C@@H](C)[C@H](c2ccccc2C)C(C)C)c1OC(C)=O [Compound 364]			< 80%	< 80%	< 80%	< 80%	< 80%
CCOC(=O)Oc1c(OC)ccnc1C(=O)N(C(=O)OCC)[C@@H](C)C(=O)O[C@@H](C)[C@H](c1ccc(F)cc1C)C(C)C [Compound 371]			< 80%	< 80%	< 80%		
CCOC(=O)Oc1c(OC)ccnc1C(=O)N[C@@H](C)C(=O)O[C@@H](C)[C@H](c1ccc(F)cc1C)C(C)C [Compound 372]			> 80%	> 80%	< 80%		
COc1ccnc(C(=O)N[C@@H](C)C(=O)O[C@@H](C)[C@H](c2ccc(F)cc2C)C(C)C)c1OC(=O)OC(C)C [Compound 373]			< 80%	< 80%	< 80%	> 80%	> 80%
COc1ccnc(C(=O)N[C@@H](C)C(=O)O[C@@H](C)[C@H](c2ccc(F)cc2C)C(C)C)c1OC(=O)C(C)(C)C [Compound 374]			< 80%	< 80%	< 80%	> 80%	> 80%
COc1ccnc(C(=O)N[C@@H](C)C(=O)O[C@@H](C)[C@H](c2ccccc2C)C(C)C)c1OC(=O)C(C)C [Compound 375]			< 80%	< 80%	< 80%	< 80%	> 80%
